Data as given in ChEMBL document CHEMBL1147460, “Syntheses and SAR studies of 4-(heteroarylpiperdin-1-yl-methyl)-pyrrolidin-1-yl-acetic acid antagonists of the human CCR5 chemokine receptor” (Bioorg Med Chem Lett, 2004).

What was measured:
[1] = target: T1, C-C chemokine receptor type 5 (Homo sapiens, UniProt P51681); assay: Inhibition of human C-C chemokine receptor type 5 assayed using [125I]-MIP-1 alpha as radioligand
HeLa [2] = assay: Anti viral activity was determined in anti HIV-1 infectivity assay in HeLa Magi cells; assay type: functional, cell-based; settings: Homo sapiens
[3] = Plasma clearance in rat; assay type: ADME, organism-based; settings: read-out: Clp
[4] = Volume of distribution in rat; assay type: ADME, organism-based; settings: in vivo, read-out: Vdss
[5] = Half life in rat; assay type: ADME, organism-based; settings: in vivo
[6] = Oral bioavailability in rat; assay type: ADME, organism-based; settings: in vivo
[7] = target: T1, C-C chemokine receptor type 5; assay: Inhibitory concentration against C-C chemokine receptor type 5 using [125I]-MIP-1 alpha as radioligand
HeLa [8] = assay: Anti viral activity in anti HIV-1 infectivity assay in HeLa Magi cells; assay type: functional; settings: Homo sapiens

T1 sequence (P51681 whole entry): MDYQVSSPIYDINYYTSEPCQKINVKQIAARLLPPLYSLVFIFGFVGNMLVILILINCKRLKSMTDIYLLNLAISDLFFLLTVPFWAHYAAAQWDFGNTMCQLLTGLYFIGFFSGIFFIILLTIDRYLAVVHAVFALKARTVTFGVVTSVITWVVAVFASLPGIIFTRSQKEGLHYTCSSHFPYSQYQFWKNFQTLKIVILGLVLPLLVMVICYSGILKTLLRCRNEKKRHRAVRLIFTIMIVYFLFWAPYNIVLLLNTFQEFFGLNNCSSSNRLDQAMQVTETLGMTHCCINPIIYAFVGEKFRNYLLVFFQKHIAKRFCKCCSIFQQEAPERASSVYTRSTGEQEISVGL

Structure (SMILES)	IC50 [1]	IC50 (HeLa [2])	other results
CCc1nc(Cc2ccccc2)sc1C1CCN(C[C@H]2CN([C@@H](C(=O)O)C(C)C)C[C@@H]2c2cccc(F)c2)CC1	1 nM	0.13 nM	clearance [3]: 1.15 mL/min/kg; Vd [4]: 0.54 L/kg; half-life [5]: 50.4 min; bioavailability [6]: 19%
O=C(O)[C@@H](C1CCCCC1)N1C[C@H](CN2CCC(c3cc(-c4ccccc4)no3)CC2)[C@@H](c2ccccc2)C1	–	–	IC50 [7]: 18.1 nM
O=C(O)[C@@H](C1CCCCC1)N1C[C@H](CN2CCC(c3csc(Cc4ccccc4)n3)CC2)[C@@H](c2ccccc2)C1	1.3 nM	–	IC90 (HeLa [8]): 33 nM
O=C(O)[C@@H](C1CCCCC1)N1C[C@H](CN2CCC(c3csc(-c4ccccc4)n3)CC2)[C@@H](c2ccccc2)C1	1.1 nM	–	IC90 (HeLa [8]): 100 nM
O=C(O)[C@@H](CC1CC1)N1C[C@H](CN2CCC(c3cnc(Cc4ccccc4)o3)CC2)[C@@H](c2ccccc2)C1	1.6 nM	3.7 nM	–
O=C(O)[C@@H](C1CCCCC1)N1C[C@H](CN2CCC(c3ncc(Cc4ccccc4)o3)CC2)[C@@H](c2ccccc2)C1	1.5 nM	–	IC90 (HeLa [8]): 100 nM
CC(C)[C@H](C(=O)O)N1C[C@H](CN2CCC(c3cnc(Cc4ccccc4)o3)CC2)[C@@H](c2ccccc2)C1	3.8 nM	300 nM	–
O=C(O)[C@@H](C1CCCCC1)N1C[C@H](CN2CCC(c3nc(-c4ccccc4)c[nH]3)CC2)[C@@H](c2ccccc2)C1	23 nM	–	–
O=C(O)[C@@H](C1CCCCC1)N1C[C@H](CN2CCC(c3ncc(Cc4ccccc4)s3)CC2)[C@@H](c2ccccc2)C1	2 nM	–	IC90 (HeLa [8]): 33 nM
O=C(O)[C@@H](C1CCCCC1)N1C[C@H](CN2CCC(c3cnc(-c4ccccc4)[nH]3)CC2)[C@@H](c2ccccc2)C1	6.2 nM	–	IC90 (HeLa [8]): 33 nM
O=C(O)[C@@H](C1CCCCC1)N1C[C@H](CN2CCC(c3nocc3-c3ccccc3)CC2)[C@@H](c2ccccc2)C1	27 nM	–	–
CC(C)[C@H](C(=O)O)N1C[C@H](CN2CCC(c3cnc(Cc4ccccc4)[nH]3)CC2)[C@@H](c2ccccc2)C1	7 nM	300 nM	–

Further lines, with some results ahead:

IC50 [1]	IC50 (HeLa [2])	Structure (SMILES)	other results
0.57 nM	0.4 nM	CCc1nc(Cc2ccccc2)[nH]c1C1CCN(C[C@H]2CN([C@H](CC3CCC3)C(=O)O)C[C@@H]2c2cccc(F)c2)CC1	–
0.51 nM	11 nM	CC(C)[C@H](C(=O)O)N1C[C@H](CN2CCC(c3cnc(Cc4ccccc4)s3)CC2)[C@@H](c2ccccc2)C1	–
0.38 nM	100 nM	O=C(O)[C@@H](CC1CCC1)N1C[C@H](CN2CCC(c3c[nH]c(Cc4ccccc4)n3)CC2)[C@@H](c2ccccc2)C1	–
0.23 nM	0.13 nM	O=C(O)C(CC1CC1)N1CC(c2ccccc2)[C@@H](CN2CCC(c3cnc(Cc4ccccc4)s3)CC2)C1 (some centres undefined)	–
0.7 nM	0.4 nM	O=C(O)[C@@H](CC1CC1)N1C[C@H](CN2CCC(c3[nH]c(Cc4ccccc4)nc3Cl)CC2)[C@@H](c2cccc(F)c2)C1	clearance [3]: 60.5 mL/min/kg; Vd [4]: 1.05 L/kg; half-life [5]: 31.8 min; bioavailability [6]: 1.1%
0.23 nM	0.13 nM	O=C(O)C(CC1CCC1)N1CC(c2ccccc2)[C@@H](CN2CCC(c3cnc(Cc4ccccc4)s3)CC2)C1 (some centres undefined)	–
0.34 nM	3.7 nM	O=C(O)[C@@H](CC1CCC1)N1C[C@H](CN2CCC(c3cnc(Cc4ccccc4)o3)CC2)[C@@H](c2ccccc2)C1	–
0.76 nM	0.13 nM	CCc1nc(Cc2ccccc2)sc1C1CCN(C[C@H]2CN([C@H](CC3CCC3)C(=O)O)C[C@@H]2c2cccc(F)c2)CC1	–
0.89 nM	0.13 nM	CCc1nc(Cc2ccccc2)oc1C1CCN(C[C@H]2CN([C@H](CC3CCC3)C(=O)O)C[C@@H]2c2cccc(F)c2)CC1	–
0.73 nM	100 nM	O=C(O)[C@@H](CC1CC1)N1C[C@H](CN2CCC(c3c[nH]c(Cc4ccccc4)n3)CC2)[C@@H](c2ccccc2)C1	–
0.29 nM	–	O=C(O)[C@@H](C1CCCCC1)N1C[C@H](CN2CCC(c3cnc(Cc4ccccc4)s3)CC2)[C@@H](c2ccccc2)C1	IC90 (HeLa [8]): 0.14 nM
0.6 nM	0.13 nM	O=C(O)[C@@H](CC1CCC1)N1C[C@H](CN2CCC(c3[nH]c(Cc4ccccc4)nc3Cl)CC2)[C@@H](c2cccc(F)c2)C1	–
0.67 nM	–	O=C(O)[C@@H](C1CCCCC1)N1C[C@H](CN2CCC(c3cnc(Cc4ccccc4)[nH]3)CC2)[C@@H](c2ccccc2)C1	–
